{"source": "patent US5242935A", "about": "“Method for treatment of neurodegenerative diseases” (R. J. Reynolds Tobacco Company, priority 1992, dated 1993)", "key": {"[1]": {"biological_target": "high affinity nicotinic receptors", "test": "Inhibition of L-[3H]nicotine binding to mouse brain membrane preparations", "design": "species or system mouse (DBA strain)", "conditions": "mouse brain membranes, 2 hr at 4° C., Ki calculated from IC50 by Cheng method", "protocol": "Mice (DBA strain) were maintained on a 12 hour light/dark cycle and were allowed free access to water and food supplied by Wayne Lab Blox, Madison, WI. Animals used in the present studies were 60 to 90 days of age and weighed 20 to 25 g. Brain membrane preparations were obtained from pooled brain tissue of both males and females.\nMice were killed by cervical dislocation. Brains were removed and placed on an ice-cold platform. The cerebellum was removed and the remaining tissue was placed in 10 volumes (weight:volume) of ice-cold buffer (Krebs-RingersHEPES:NaCl, 118 mM; KCl, 4.8 mM; CaCl2, 2.5 mM; MgSO4, 1.2 mM; HEPES, 20 mM; pH to 7.5 with NaOH) and homogenized with a glass-Teflon tissue grinder. The resulting homogenate was centrifuged at 18000×g for 20 min. and the resulting pellet was resuspended in 20 volumes of water. After 60 min. incubation at 4.C, a new pellet was collected by centrifugation at 18000×g for 20 min. After resuspension in 10 volumes of buffer, a new final pellet was again collected by centrifugation at 18000×g for 20 min. Prior to each centrifugation step, the suspension was incubated at 37° C. for 5 min. to promote hydrolysis of endogenous acetylcholine. The final pellet was overlayered with buffer and stored at -70° C. On the day of the assay, that pellet was thawed, resuspended in buffer and centrifuged at 18000×g for 20 min. The resulting pellet obtained was resuspended in buffer to a final concentration of approximately 5 mg protein/ml. Protein was determined by the method of Lowry, et al., J. Biol. Chem., Vol. 193, pp. 265-275 (1951), using bovine serum albumin as the standard.\nThe binding of L-[^3 H]nicotine was measured using a modification of the method of Romano, et al., Science, Vol. 210, pp. 647-650 (1980) as described previously by Marks, et al., Mol. Pharmacol., Vol. 30, pp. 427-436 (1986). The binding of L-[^3 H]nicotine was measured using a 2 hr. incubation at 4° C. Incubations contained about 500 μg of protein and were conducted in 12 mm×75 mm polypropylene test tubes in a final incubation volume of 250 μl. The incubation buffer was Krebs-Ringers HEPES containing 200 mM TRIS buffer, pH 7.5. The binding reaction was terminated by filtration of the protein containing bound ligand onto glass fiber filters (Micro Filtration Systems) that had been soaked in buffer containing 0.5 percent polyethyleneimine. Filtration vacuum was -50 to -100 torr. Each filter was washed five times with 3 ml of ice-cold buffer. The filtration apparatus was cooled to 2° C. before use and was kept cold through the filtration process. Nonspecific binding was determined by inclusion of 10 μM nonradioactive nicotine in the incubations. The inhibition of L-[^3 H]nicotine binding by test compounds was determined by including one of eight different concentrations of the test compound in the incubation. Inhibition profiles were measured using 10 nM L-[^3 H]nicotine and IC50 values were estimated as the concentration of compound that inhibited 50 percent of specific L-[^3 H]nicotine binding. Inhibition constants (Ki values) were calculated from the IC50 values using the method of Cheng, et al., Biochem. Pharmacol., Vol. 22, pp. 3099-3108 (1973). […] The L-[^3 H]nicotine used in all experiments was purified chromatographically by the method of Romm, et al., Life Sci., Vol. 46, pp. 935-943 (1990)."}, "[2]": {"tested_on": "synaptosomes from the striatal area of rat brain", "test": "[3H]Dopamine release from rat striatal synaptosomes (continuous perfusion)", "format": "cell-based, rat (Sprague-Dawley)", "conditions": "0.2 ml of a 20 μM solution of ligand, relative to equal concentration of S(-) nicotine, read-out: Dopamine Release (percent release relative to S(-) nicotine)", "protocol": "Dopamine release was measured by preparing synaptosomes from the striatal area of rat brain obtained from Sprague-Dawley rats generally according to the procedures set forth by Nagy, et al., J. Neurochem., Vol. 43, pp. 1114-1123 (1984). Striata from 4 rats were homogenized in 2 ml of 0.32M sucrose buffered with 5 mM HEPES (pH 7.5), using a glass-teflon tissue grinder. The homogenate was diluted to 5 ml with additional homogenization solution and centrifuged at 1000×g for 10 min. This procedure was repeated on the new pellet\nthe resulting supernatant was centrifuged at 12,000×g for 20 min. A 3 layer discontinuous Percoll gradient consisting of 16 percent, 10 percent and 7.5 percent Percoll in HEPES-buffered sucrose was made with the final pellet dispersed in the top layer. After centrifugation at 15,000×g for 20 min., the synaptosomes were recovered above the 16 percent layer with a pasteur pipette, diluted with 8 ml of perfusion buffer (128 mM NaCl, 2.4 mM KCl, 3.2 mM CaCl2, 1.2 mM KH2 PO4, 1.2 mM MgSO4, 25 mM HEPES pH 7.4, 10 mM dextrose, 1 mM ascorbate, 0.01 mM pargyline), and centrifuged at 15,000×g for 20 min. The new pellet was collected and re-suspended in perfusion buffer. The synaptosome suspension was incubated for 10 min. at 37° C. Then [^3 H]dopamine (Amersham, 40-60 Ci/mmol) was added to the suspension to give a final concentration of 0.1 μM in suspension, and the suspension was incubated for another 5 min. Using this method, 30 to 90 percent of the dopamine was taken up into the synaptosomes, as determined by scintillation counting following filtration through glass fiber filters soaked with 0.5 percent polyethyleneimine. A continuous perfusion system was used to monitor release following exposure to each ligand (i.e., 5-fluoronicotine, 5-bromonicotine, 4^1 -methylnicotine, 5'-methylnicotine, and 5-methylnicotine). Synaptosomes were loaded onto glass fiber filters (Gelman type A/E). Perfusion buffer was dripped onto the filters (0.2-0.3 ml/min.) and pulled through the filters with a peristaltic pump. Synaptosomes were washed with perfusion buffer for a minimum of 20 min. before addition of the ligand. After the addition of a 0.2 ml of a 20 μM solution of ligand, the perfusate was collected into scintillation vials at 1 min. intervals and the dopamine released was quantified by scintillation counting. Peaks of radioactivity released above background were summed and the average basal release during that time was subtracted from the total. Release was expressed as a percentage of release obtained with an equal concentration of S(-) nicotine."}}}
{"smiles": "CN1CCCC1c1cncc(F)c1", "note": "(racemic) [5-fluoronicotine]", "values": [{"measurement": "Ki", "setting": "[1]", "result": "61 ± 16", "unit": "nM"}, {"measurement": "Emax at 20 µM", "setting": "[2]", "result": 110, "unit": "%"}]}
{"smiles": "Cc1cncc(C2CCCN2C)c1", "note": "(racemic) [5-methylnicotine]", "values": [{"measurement": "Ki", "setting": "[1]", "result": "2 ± 0.8", "unit": "nM"}, {"measurement": "Emax at 20 µM", "setting": "[2]", "result": 30, "unit": "%"}]}
{"smiles": "CC1CC(c2cccnc2)N(C)C1", "note": "(racemic) [4^1 -methylnicotine]", "values": [{"measurement": "Ki", "setting": "[1]", "result": "91 ± 7", "unit": "nM"}, {"measurement": "Emax at 20 µM", "setting": "[2]", "result": 40, "unit": "%"}]}
{"smiles": "CC1CCC(c2cccnc2)N1C", "note": "(racemic) [5^1 -methylnicotine]", "values": [{"measurement": "Ki", "setting": "[1]", "result": 6400, "unit": "nM"}, {"measurement": "Emax at 20 µM", "setting": "[2]", "result": 5, "unit": "%"}]}
{"smiles": "CN1CCCC1c1cncc(Br)c1", "note": "(racemic) [5-bromonicotine]", "values": [{"measurement": "Ki", "setting": "[1]", "result": "44 ± 12", "unit": "nM"}, {"measurement": "Emax at 20 µM", "setting": "[2]", "result": 65, "unit": "%"}]}
